Source: US9505824B2, “Antigen peptide derived from the sequence of epidermal growth factor receptor having T790M point mutation” (Kanagawa Prefectural Hospital Organization, priority 2012, dated 2016)

Key:
[1] = system: HLA-A2 molecule; assay: HLA class I stabilization assay with TAP2-deficient RMA-S/A2 cells; type: binding; details: peptide 10 μg/ml
[2] = system: PBMCs from HLA-A2+ healthy donors; assay: Immunogenicity in PBMCs of HLA-A2+ healthy donors, IFN-γ ELISPOT against peptide-pulsed T2 cells; type: cell-based, human; details: PBMCs from 6 HLA-A2+ healthy donors, repeated stimulation with peptide 10 μg/ml
Excerpt: FIG. 1. Immunogenicity of T790M-5 and T790M-7 peptides in peripheral blood mononuclear cells (PBMCs) from normal donors. Immunogenicity of T790M-5 and T790M-7 peptides was examined with PBMCs from 6 different HLA-A2^+ healthy donors.

[3] = target: T1, HLA-A2 molecule (Homo sapiens, UniProt P04439, D140Y/D185E/D98H/E176V/E277Q/G131W/G231S/I119V/I121R/I166T/I218V/L300P/L318F/N151K/N90K/P208A/P217A/Q86G/Q94H/R138H/R169H/T345S); assay: HLA class I stabilization assay with TAP2-deficient T2 cells; type: binding; details: T2 cells expressing HLA-A2
T1 construct: TAP2-deficient T2 cells expressing HLA-A2; host or cells: T2 cells (TAP2-deficient, HLA-A2+)
Description: FIG. 6. HLA-A2-binding capability of EGFR-T790M-derived peptides. The binding of selected peptides to an HLA-A2 molecule was evaluated by HLA class I stabilization assay with TAP2-deficient T2 cells expressing HLA-A2.
The binding of predicted peptides to an HLA-A2 molecule was evaluated by HLA class I stabilization assay with TAP2-deficient T2 cells (HLA-A2+) (RIKEN, Saitama, Japan). After overnight culture in RPMI 1640 medium at 26° C., T2 cells were cultured for 3 hours at 26° C. in the presence of each synthetic peptide. The cells were cultured for 2.5 hours at 37° C., and then stained with anti-HLA-A2 antibody (BB7.2) (MBL, Nagoya, Japan), followed by analysis with flow cytometry. The binding capability of each peptide to the HLA-A2 molecule was evaluated by comparing the mean fluorescence intensity (MFI) of HLA-A2 expression of the peptide with those of the positive and the negative controls. The HLA-A2-restricted HIV peptide and CMV peptide were used as positive controls, and H-2K^b-restricted OVA peptide was used as a negative control.

Sequence	HLA binding capability (%) (MFI increase of HLA-A2 expression) [1]	healthy donors in whom T cell lines secreting IFN-γ in response to the peptide were established [2]	binding to HLA-A2 (in words) [3]
VQLIMQLMPF [Peptide T790M-1]	0%	–	–
IMQLMPFGCLL [Peptide T790M-8]	69.3%	none of the 6 healthy donors	–
LIMQLMPFGC [Peptide T790M-3]	0%	–	confirmed to bind to HLA-A2
QLIMQLMPFG [Peptide T790M-2]	0%	–	–
IMQLMPFGL [Peptide T790M-E]	–	–	higher binding
IMQLMPFGV [Peptide T790M-D]	–	–	higher binding
LTSTVQLIMQL [Peptide T790M-6]	0%	–	–
IMQLMPFGCL [Peptide T790M-4]	0%	–	–
